Measurements: paper PMC5024008 (American Journal of Transplantation, 2015)
Each block holds one compound with its values, some of them ahead of it.

Assays:
[1] = ABT-450 200 mg and 250 mg for 12 to 24 weeks; HCV-infected patients; cited from earlier work
[2] = Effect of a single dose of cyclosporine on DAA steady-state pharmacokinetics; format: in vivo, human (healthy volunteers); details: for change in pharmacokinetic parameters: by cyclosporine and tacrolimus, steady-state 3D regimen
[3] = format: in vivo, human (healthy volunteers)

change in pharmacokinetic parameters [2]: ≤ 34%
SMILES: CC(C)c1nc(CN(C)C(=O)N[C@H](C(=O)N[C@@H](Cc2ccccc2)C[C@H](O)[C@H](Cc2ccccc2)NC(=O)OCc2cncs2)C(C)C)cs1 [Ritonavir, ritonavir]

change in steady-state exposures (Cmax and AUC) ([2]; in the presence of cyclosporine or tacrolimus vs absence): ≤ 15%
SMILES: COC(=O)N[C@H](C(=O)N1CCC[C@H]1C(=O)Nc1ccc([C@@H]2CC[C@@H](c3ccc(NC(=O)[C@@H]4CCCN4C(=O)[C@@H](NC(=O)OC)C(C)C)cc3)N2c2ccc(C(C)(C)C)cc2)cc1)C(C)C [Ombitasvir, ombitasvir]

AUC(0-inf) ([3]; human, whole blood, oral, 2 mg): 118 ng·h/mL
Cmax ([3]; human, whole blood, oral, 2 mg): 11 ng/mL
Tmax ([3]; human, whole blood, oral, 2 mg): 1.8 h
concentration at 12 h ([3]; human, whole blood, oral, 2 mg): 1.6 ng/mL
concentration at 24 h ([3]; human, whole blood, oral, 2 mg): 1.1 ng/mL
delay in Tmax ([3]; in the presence of the 3D regimen at steady state vs tacrolimus alone): 3.2 h
dose-normalized C24 with 3D relative to dose-normalized C12 alone ([3]; tacrolimus with steady-state 3D regimen vs tacrolimus alone): 11 fold
SMILES: C=CC[C@@H]1/C=C(\C)C[C@H](C)C[C@H](OC)[C@H]2O[C@@](O)(C(=O)C(=O)N3CCCC[C@H]3C(=O)O[C@H](/C(C)=C/[C@@H]3CC[C@@H](O)[C@H](OC)C3)[C@H](C)[C@@H](O)CC1=O)[C@H](C)C[C@@H]2OC [tacrolimus]

Further lines, the compound ahead of its results:

SMILES: Cc1cnc(C(=O)N[C@H]2CCCCC/C=C\[C@@H]3C[C@@]3(C(=O)NS(=O)(=O)C3CC3)NC(=O)[C@@H]3C[C@@H](Oc4nc5ccccc5c5ccccc45)CN3C2=O)cn1 [ABT-450]
safety and tolerability [1]: safe and well tolerated

SMILES: COc1c(-c2ccc3cc(NS(C)(=O)=O)ccc3c2)cc(-n2ccc(=O)[nH]c2=O)cc1C(C)(C)C [Dasabuvir, dasabuvir]
change in pharmacokinetic parameters [2]: ≤ 34%

SMILES: COc1c(-c2ccc3cc(NS(C)(=O)=O)ccc3c2)cc(-n2ccc(=O)[nH]c2=O)cc1C(C)(C)CO [Dasabuvir M1]
change in pharmacokinetic parameters [2]: ≤ 34%
